Results reported in patent publication US20230181564A1, “Potent Tetrahydroquinolone Eliminates Apicomplexan Parasites” (The University of Chicago, priority 2020, published 2023).
≈ marks a conversion by molar mass, not a printed value.

Key:
[1] = Kinetic/aqueous solubility in PBS pH 7.4; format: physicochemical
Experimental: PBS Sol/Toxicity pH7.4 refers to solubility of the compound in Phosphate Buffered Saline (PBS) at pH7.4. […] Parasites were RH-YFP expressing tachyzoites (Tachy) and EGS (Brady) strains. Studies of effects of inhibitors on HFF or on T.gondii tachyzoites were performed with triplicate wells in at least two biological replicate experiments. Studies of effects on bradyzoites were performed at least twice in at least two biological replicate experiments. Compounds with much less inhibition of mammalian than T. gondii cytochrome bc in the saffarine enzyme assay (indicated by **) provide potential to further develop compounds, if unanticipated toxicity occurs from JAG21.
(§1) Structure Activity Relationship (SAR) and comparison of effect on T.gondii and HFF enzyme activity. […] The MDCK-MDR1 Permeability Assay was also performed. […] These were measured by Chem Partners.

[2] = biological target: hERG (Homo sapiens, UniProt Q12809); assay: hERG liability; format: in vitro ADME
Experimental: as §1

[3] = system: T. gondii ΔRPS13; assay: ΔRPS13 infection of interferon receptor knockout mice; format: in vivo, Toxoplasma gondii; conditions: 100,000 ΔRPS13; TAF day -1, JAG21 14 days, then tetracycline; vs either alone; not durable
From the text: RPS13 Δ In vivo. This G1 arrested parasite persists in tissue culture for prolonged times in the absence of tetracycline (Hutson et al 2010), but in immune competent mice it cannot be rescued with teteracycline, or LNAME (L-N^G-Nitro arginine methyl ester, an analog of arginine) used as an antagonist of nitric oxide synthase (NOS) that inhibits NO production, or both together (Hutson et al. 2010).
In pilot studies, herein, interferon α receptor knockout mice that were not treated were observed following infection. At 7 and at 14 days following infection, spleen and liver were removed and immune peroxidase stained. At 14 days a group of mice were treated with anhydrotetracycline and when a subset of these mice died their spleen and liver were removed and immune peroxidase stained.
As in the pilot studies, this RPS13 Δ parasite also was used to infect interferon α receptor knockout mice in a treatment study. In this separate study, groups of mice were infected with RPS13 Δ. […] At the time they appeared to have substantial illness or at the termination of the experiment they were euthanized, tissues fixed in formalin and stained with hematoxylin and eosin or immunoperoxidase stained and parasite burden was assessed.

[4] = system: T. gondii Me49 strain; assay: Established chronic Me49 infection in Balb/C mice, brain cysts; format: in vivo, Toxoplasma gondii; conditions: treatment from day 30 after Me49 infection, IP daily for 14 days; p<0.03, p<0.01
Experimental: In separate experiments, Balb/C mice were infected IP with 20×10^3 T. gondii Me49 strain tachyzoites. In these separate studies of mice with established chronic infection, after 30 days, IP treatment with JAG21 was begun each day for 14 days. JAG21 was dissolved in DMSO and administered IP in a total volume of 0.05 mL. In experiments when tafenoquine was administered alone or with JAG21 in some groups 3 mg/kg tafenoquine was administered once on day −1 from when JAG21 treatment was initiated. Cysts in brain were quantitated on day 30, 16 days after discontinuing JAG21. Immunoperoxidase staining was performed. Parasite burden was quantitated in two ways. The first was using a positive pixel count algorithm of Aperio ImageScope software. Positive pixels were normalized to tissue area (mm^2). Briefly, automated quantitation was done by counting positive pixels per square area. The entire brain in one section was scanned for each mouse. The Cyst burden was quantitated as units of positive pixels per mm2. The average±S.E.M. numbers of mm2 per slide quantitated was 30.2±1.6 square mm per mouse for this quantification. […] Cysts on each slide for each condition in two biological replicate experiments were also quantitated by 2 separate observers independently and results compared with automated counting, separately.

hERG, sequence (Q12809 whole entry): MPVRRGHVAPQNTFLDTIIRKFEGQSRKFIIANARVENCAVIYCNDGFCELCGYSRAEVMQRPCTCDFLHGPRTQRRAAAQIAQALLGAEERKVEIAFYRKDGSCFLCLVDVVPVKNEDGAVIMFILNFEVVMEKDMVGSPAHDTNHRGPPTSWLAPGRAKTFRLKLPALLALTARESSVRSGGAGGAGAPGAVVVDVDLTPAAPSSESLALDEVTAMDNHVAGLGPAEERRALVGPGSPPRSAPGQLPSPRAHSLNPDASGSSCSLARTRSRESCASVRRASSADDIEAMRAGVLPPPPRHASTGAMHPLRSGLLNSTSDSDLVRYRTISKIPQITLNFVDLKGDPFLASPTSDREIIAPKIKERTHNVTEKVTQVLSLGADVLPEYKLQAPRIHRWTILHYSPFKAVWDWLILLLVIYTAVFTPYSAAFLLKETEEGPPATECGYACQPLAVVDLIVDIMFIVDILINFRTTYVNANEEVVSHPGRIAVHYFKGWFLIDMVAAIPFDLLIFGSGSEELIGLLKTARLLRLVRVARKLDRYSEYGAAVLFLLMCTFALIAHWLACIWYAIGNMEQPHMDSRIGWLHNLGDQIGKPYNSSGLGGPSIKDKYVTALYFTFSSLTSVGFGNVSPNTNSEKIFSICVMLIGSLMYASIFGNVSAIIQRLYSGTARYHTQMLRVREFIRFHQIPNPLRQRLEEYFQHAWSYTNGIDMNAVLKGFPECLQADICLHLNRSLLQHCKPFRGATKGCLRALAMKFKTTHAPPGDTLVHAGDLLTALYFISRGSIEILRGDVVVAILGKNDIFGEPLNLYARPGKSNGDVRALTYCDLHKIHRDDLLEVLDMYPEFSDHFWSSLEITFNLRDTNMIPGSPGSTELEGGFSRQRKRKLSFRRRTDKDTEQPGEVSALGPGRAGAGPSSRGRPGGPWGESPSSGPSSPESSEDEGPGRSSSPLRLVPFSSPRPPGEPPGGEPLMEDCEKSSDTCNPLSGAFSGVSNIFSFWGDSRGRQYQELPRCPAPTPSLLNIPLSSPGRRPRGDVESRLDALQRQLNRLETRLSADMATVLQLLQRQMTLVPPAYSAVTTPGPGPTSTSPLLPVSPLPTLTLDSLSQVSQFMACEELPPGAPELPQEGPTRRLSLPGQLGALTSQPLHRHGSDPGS

In the case of Cc1[nH]c2c(c(=O)c1-c1ccc(Oc3ccc(OC(F)(F)F)cc3)cc1)CCCC2 [JAG021, 2-methyl-3-(4-(4-(trifluoromethoxy)phenoxy)phenyl)-5,6,7,8-tetrahydroquinolin-4-one], the solubility ([1]; amorphous compounds) is reported as 7 µM (≈ 2.91 µg/mL), the “Solubility of the microcrystalline form” value ([1]; microcrystalline form) is reported as 3.5 µM and the “PBS Sol pH7.4” value ([1]; solubility in Phosphate Buffered Saline pH 7.4, first value of cell) is reported as 7.07 μM. The hERG liability [2] was “no hERG liability”, the “Survival time, JAG21 combined with tafenoquine” value [3] was “improved time of survival” and the “Normal appearing cysts, free organisms and immunoperoxidase stained cysts in brain” value [4] was “marked, statistically significant reduction”.
